Where two headings read alike, the source gives them in different places.
Target: T1, mouse TMEM16A mutant Q637A (Mus musculus, UniProt Q8BHY3, Q637A)
T1 construct: expressed in transfected cells; host or cells: HEK293T
T1 sequence (Q8BHY3 1-960 Q637A): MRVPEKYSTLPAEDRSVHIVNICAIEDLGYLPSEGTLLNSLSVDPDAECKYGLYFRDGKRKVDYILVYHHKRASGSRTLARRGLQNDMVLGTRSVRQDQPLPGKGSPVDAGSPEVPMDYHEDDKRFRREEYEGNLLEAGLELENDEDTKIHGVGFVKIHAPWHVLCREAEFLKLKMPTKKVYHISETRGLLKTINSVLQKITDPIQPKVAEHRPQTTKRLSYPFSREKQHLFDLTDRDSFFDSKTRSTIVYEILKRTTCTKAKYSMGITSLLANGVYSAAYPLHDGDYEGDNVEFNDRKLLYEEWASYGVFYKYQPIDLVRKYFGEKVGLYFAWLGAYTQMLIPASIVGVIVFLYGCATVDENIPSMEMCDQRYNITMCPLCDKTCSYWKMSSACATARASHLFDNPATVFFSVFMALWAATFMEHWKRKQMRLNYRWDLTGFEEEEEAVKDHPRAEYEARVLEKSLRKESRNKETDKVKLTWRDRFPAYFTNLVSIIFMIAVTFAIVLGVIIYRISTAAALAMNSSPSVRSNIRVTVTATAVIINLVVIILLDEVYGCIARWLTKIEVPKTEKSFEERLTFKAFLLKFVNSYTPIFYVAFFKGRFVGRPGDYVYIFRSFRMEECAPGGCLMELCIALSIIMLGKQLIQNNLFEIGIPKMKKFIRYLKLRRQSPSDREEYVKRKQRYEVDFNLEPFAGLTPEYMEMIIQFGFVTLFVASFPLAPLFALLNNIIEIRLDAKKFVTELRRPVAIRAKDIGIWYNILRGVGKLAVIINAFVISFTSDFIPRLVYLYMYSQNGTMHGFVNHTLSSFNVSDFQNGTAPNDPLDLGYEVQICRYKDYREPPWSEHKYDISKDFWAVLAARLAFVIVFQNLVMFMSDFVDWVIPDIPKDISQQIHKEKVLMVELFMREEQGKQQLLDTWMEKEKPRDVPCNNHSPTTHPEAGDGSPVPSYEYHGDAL
Assay: Inside-out patch recording of 1PBC block, mutant Q637A
Assay type: cell-based
Settings: for remaining activity at 1 µM: 1PBC conc 1; for remaining activity at 1 µM / remaining activity at 3 µM / remaining activity at 10 µM / remaining activity at 30 µM: read-out: relative current in 1PBC (avr); for remaining activity at 3 µM: 1PBC conc 3; for remaining activity at 10 µM: 1PBC conc 10; for remaining activity at 30 µM: 1PBC conc 30
Experimental: HEK293T cells (ATCC CRL-1573) were maintained in Dulbecco’s modified Eagle’s medium (DMEM; Sigma-Aldrich) supplemented with 10 U ml^−1 penicillin, 0.1 mg ml^−1 streptomycin (Sigma-Aldrich), 2 mM L-glutamine (Sigma-Aldrich), and 10% FBS (Sigma-Aldrich) in a humidified atmosphere containing 5% CO2 at 37 °C. HEK293S GnTI^− cells (ATCC CRL-3022) were maintained in HyClone HyCell TransFx-H medium (GE Healthcare) supplemented with 10 U ml^−1 penicillin, 0.1 mg ml^−1 streptomycin, 4 mM L-glutamine, 0.15% poloxamer 188 (Sigma-Aldrich), and 1% FBS in an atmosphere containing 5% CO2 at 185 rpm at 37 °C. The ac splice variant of mouse TMEM16A (UniProt ID: Q8BHY3), mouse TMEM16B (UniProt ID: Q8CFW1), or mouse TMEM16F (UniProt ID: Q6P9J9) bearing a 3C cleavage site, a Venus YFP, a Myc tag, and a Streptavidin-binding peptide (SBP) downstream of the open reading frame in a modified pcDNA3.1 vector (Invitrogen) were used as described previously[21],[31]. Mutations were introduced using a modified QuikChange method[58] and were verified by sequencing.
HEK293T cells were transfected with 3–4 μg DNA per 6 cm Petri dish using the calcium phosphate co-precipitation method and were used within 24–96 h after transfection. Recordings were performed on inside-out patches excised from HEK293T cells expressing the construct of interest. Patch pipettes were pulled from borosilicate glass capillaries (O.D. 1.5 mm, I.D. 0.86 mm, Sutter Instrument) and were fire-polished with a microforge (Narishige) before use. Pipette resistance was typically 3–8 MΩ when filled with the recording solutions detailed below. Seal resistance was typically 4 GΩ or higher. Voltage-clamp recordings were made using Axopatch 200B, Digidata 1550, and Clampex 10.7 (Molecular Devices). Analog signals were filtered with the in-built 4-pole Bessel filter at 10 kHz and were digitized at 20 kHz. Solution exchange was achieved using a gravity-fed system through a theta glass pipette mounted on an ultra-fast piezo-driven stepper (Siskiyou). […] All recordings were performed at 20 °C.
A symmetrical ionic condition was used throughout. Stock solution with Ca^2+-EGTA contained 150 mM NaCl, 5.99 mM Ca(OH)2, 5 mM EGTA, and 10 mM HEPES at pH 7.40. Stock solution with EGTA contained 150 mM NaCl, 5 mM EGTA, and 10 mM HEPES at pH 7.40. Free Ca^2+ concentrations were adjusted by mixing the stock solutions at the required ratios calculated using the WEBMAXC program (http://web.stanford.edu/~cpatton/webmaxcS.htm). Patch pipettes were filled with the stock solution with Ca^2+-EGTA, which has a free Ca^2+ concentration of 1 mM. 1PBC (ChemBridge) stock was reconstituted in anhydrous DMSO (Sigma-Aldrich) at 100 mM and stored at −20 °C. Working solutions with 1PBC were prepared by serial dilution. Unless otherwise stated, experiments were performed at a saturating Ca^2+ concentration as shown in Supplementary Table 1 and the primary data were corrected for current rundown as described previously[21],[25].
Concentration-response relations, obtained from the ratio of the I-V plots before and after the application of the blocker, were fitted to the Hill equation,1 I/Imax=1/1+IC50/[blocker]^h where I/Imax is the normalized current responses, IC50 defines the concentration at which inhibition is at its half-maximum, and h is the Hill coefficient.

- IC50 (0 mV, 2 µM Ca2+): 1820 nM
- remaining activity at 1 µM (0 mV): 65.8%
- remaining activity at 3 µM (0 mV): 36.3%
- remaining activity at 10 µM (0 mV): 15.5%
- remaining activity at 30 µM (0 mV): 6.35%
- IC50 (20 mV, 2 µM Ca2+): 1400 nM
- remaining activity at 1 µM (20 mV): 59.7%
- remaining activity at 3 µM (20 mV): 30.3%
- remaining activity at 10 µM (20 mV): 12.3%
- remaining activity at 30 µM (20 mV): 4.62%
- IC50 (40 mV, 2 µM Ca2+): 1150 nM
- remaining activity at 1 µM (40 mV): 54.8%
- remaining activity at 3 µM (40 mV): 26.2%
- remaining activity at 10 µM (40 mV): 10.3%
- remaining activity at 30 µM (40 mV): 3.87%
- IC50 (60 mV, 2 µM Ca2+): 956 nM
- remaining activity at 1 µM (60 mV): 49.7%
- remaining activity at 3 µM (60 mV): 22.8%
- remaining activity at 10 µM (60 mV): 9%
- remaining activity at 30 µM (60 mV): 3.77%
- log-fold IC50 (change of mutant vs WT) (80 mV): -0.3333
- IC50 (80 mV, 2 µM Ca2+): 880 nM
- remaining activity at 1 µM (80 mV): 47.5%
- remaining activity at 3 µM (80 mV): 21%
- remaining activity at 10 µM (80 mV): 9.17%
- remaining activity at 30 µM (80 mV): 3.99%
- IC50 (100 mV, 2 µM Ca2+): 898 nM
- remaining activity at 1 µM (100 mV): 48.7%
- remaining activity at 3 µM (100 mV): 20.5%
- remaining activity at 10 µM (100 mV): 9.32%
- remaining activity at 30 µM (100 mV): 4.29%
- IC50 (120 mV, 2 µM Ca2+): 985 nM
- remaining activity at 1 µM (120 mV): 50.9%
- remaining activity at 3 µM (120 mV): 22%
- remaining activity at 10 µM (120 mV): 10.5%
- remaining activity at 30 µM (120 mV): 5.23%
- IC50 (140 mV, 2 µM Ca2+): 1170 nM
- remaining activity at 1 µM (140 mV): 55.6%
- remaining activity at 3 µM (140 mV): 24.7%
- remaining activity at 10 µM (140 mV): 12.4%
- remaining activity at 30 µM (140 mV): 6.82%
- IC50 (-20 mV, 2 µM Ca2+): 2340 nM
- remaining activity at 1 µM (-20 mV): 71.8%
- remaining activity at 3 µM (-20 mV): 42.4%
- remaining activity at 10 µM (-20 mV): 18.6%
- remaining activity at 30 µM (-20 mV): 8.09%
- IC50 (-40 mV, 2 µM Ca2+): 3080 nM
- remaining activity at 1 µM (-40 mV): 76.6%
- remaining activity at 3 µM (-40 mV): 49.5%
- remaining activity at 10 µM (-40 mV): 23.3%
- remaining activity at 30 µM (-40 mV): 10.7%
- IC50 (-60 mV, 2 µM Ca2+): 4040 nM
- remaining activity at 1 µM (-60 mV): 81.3%
- remaining activity at 3 µM (-60 mV): 56.4%
- remaining activity at 10 µM (-60 mV): 28.3%
- remaining activity at 30 µM (-60 mV): 13.4%
- IC50 (-80 mV, 2 µM Ca2+): 5190 nM
- remaining activity at 1 µM (-80 mV): 84.8%
- remaining activity at 3 µM (-80 mV): 62.7%
- remaining activity at 10 µM (-80 mV): 33.3%
- remaining activity at 30 µM (-80 mV): 16.6%
- IC50 (-100 mV, 2 µM Ca2+): 6660 nM
- remaining activity at 1 µM (-100 mV): 87.3%
- remaining activity at 3 µM (-100 mV): 68.5%
- remaining activity at 10 µM (-100 mV): 38.7%
- remaining activity at 30 µM (-100 mV): 20.5%
- IC50 (-120 mV, 2 µM Ca2+): 8290 nM
- remaining activity at 1 µM (-120 mV): 88.8%
- remaining activity at 3 µM (-120 mV): 72.5%
- remaining activity at 10 µM (-120 mV): 44.2%
- remaining activity at 30 µM (-120 mV): 24.7%
- IC50 (-140 mV, 2 µM Ca2+): 10200 nM
- remaining activity at 1 µM (-140 mV): 89.3%
- remaining activity at 3 µM (-140 mV): 76.3%
- remaining activity at 10 µM (-140 mV): 49.3%
- remaining activity at 30 µM (-140 mV): 28.8%
- IC50 (Q637A, V 0 mV): 1820 nM
- IC50 (Q637A, V 20 mV): 1400 nM
- IC50 (Q637A, V 40 mV): 1150 nM
- IC50 (Q637A, V 60 mV): 956 nM
- IC50 (Q637A, V 80 mV): 880 nM
- IC50 (Q637A, V 100 mV): 898 nM
- IC50 (Q637A, V 120 mV): 985 nM
- IC50 (Q637A, V 140 mV): 1170 nM
- IC50 (Q637A, V -20 mV): 2340 nM
- IC50 (Q637A, V -40 mV): 3080 nM
- IC50 (Q637A, V -60 mV): 4040 nM
- IC50 (Q637A, V -80 mV): 5190 nM
- IC50 (Q637A, V -100 mV): 6660 nM
- IC50 (Q637A, V -120 mV): 8290 nM
- IC50 (Q637A, V -140 mV): 10200 nM
Structure (SMILES): N#Cc1c(C(F)(F)F)cc(O)n2c1nc1ccccc12 [1PBC]

From publication PMC9120017, “Inhibition mechanism of the chloride channel TMEM16A by the pore blocker 1PBC” (Nature Communications, 2022)
